According to BindingDB's records for PubMed 35429911 (Univ. Lille, 2022):

Molecular target: Programmed cell death 1 ligand/protein 1 (Homo sapiens, UniProt Q9NZQ7+Q15116)
Assay: Inhibition of human PD-1/PD-L1 interaction in CHO-K1 cells transfected with PD-1-YFP/SHP-2-CFP and measured by FRET assay

Sequence of Programmed cell death 1 ligand/protein 1 (Q9NZQ7 whole entry): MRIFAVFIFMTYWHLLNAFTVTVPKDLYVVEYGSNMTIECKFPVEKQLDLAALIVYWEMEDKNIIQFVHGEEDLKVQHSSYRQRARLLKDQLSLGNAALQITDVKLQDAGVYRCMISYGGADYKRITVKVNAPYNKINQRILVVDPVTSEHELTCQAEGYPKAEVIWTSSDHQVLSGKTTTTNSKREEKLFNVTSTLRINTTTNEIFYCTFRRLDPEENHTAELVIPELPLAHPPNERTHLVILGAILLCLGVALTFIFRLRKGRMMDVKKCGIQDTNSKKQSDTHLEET
Sequence of Programmed cell death 1 ligand/protein 1 (Q15116 whole entry): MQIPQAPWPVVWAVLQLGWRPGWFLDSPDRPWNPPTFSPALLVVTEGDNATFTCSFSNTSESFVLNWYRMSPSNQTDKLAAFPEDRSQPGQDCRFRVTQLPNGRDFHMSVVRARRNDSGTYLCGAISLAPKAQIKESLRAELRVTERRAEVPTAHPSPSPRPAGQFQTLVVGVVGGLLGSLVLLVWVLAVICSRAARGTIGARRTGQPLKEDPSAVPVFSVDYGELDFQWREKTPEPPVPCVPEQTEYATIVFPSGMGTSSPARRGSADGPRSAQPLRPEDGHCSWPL

Row | Structure (SMILES) | IC50 [nM]
1 | COc1ccccc1C1=NN(c2ccccn2)C(=O)C1 | 7
2 | COc1ccc(C2=NN(c3ccccn3)C(=O)C2)cc1 | 17
